Reference: patent US20180326022A1, “COMPOSITIONS AND METHODS FOR IMPROVING HEART FUNCTION AND TREATING HEART FAILURE” (The Trustees of the University of Pennsylvania, priority 2017, published 2018)

Assays:
Format in all cases: cell-based
human myocytes [1] = test: Cell contractility of human myocytes (0.5 Hz)
Procedure: (§1) Viable myocytes were concentrated by gravity (5-7 min) and supernatant was aspirated to remove dead cells. Myocytes were resuspended in NT solution containing 1 mM Ca^2+ and concentrated by gravity (5-7 min) again. Cardiomyocytes used acutely were maintained in NT solution for up to 6 hours. Myocytes were treated with 10 μM parthenolide (Fisher Scientific NC9013142 or Sigma P0667) or 10 μM colchicine (Sigma) at room temperature in NT solution for 2 hours. Experiments were performed within 6 hours of isolation, except for those involving viral transduction in cultured cells.
MatTek glass bottom dish was coated 5 μl of 0.5 mg/ml laminin and air dried for 10 min. Culture medium was F-10 (1×) Nutrient Mixture (Ham) [+] L-Glutamine (Life Technologies, 11550-043) supplemented with insulin-transferrin selenium-X (Gibco, 51500-056), 20 mM HEPES, 1 μg/μl primocin (Invivogen, ant-pm-1), 0.4 mM extra CaCl2, 5% FBS, 25 μM cytochalasin D (Cayman, 11330). Viable myocytes were concentrated and a proper amount of medium was added in culture so that neighboring cells were not in direct contact. Viral constructs were permitted to express for 48 hours with Moi=100-200. Adenoviral TTL-IRES-dsRed and EMTB-3x GFP were transduced in human myocytes as previously performed in rat myocytes. Myocytes were replenished with fresh warm medium without cytochalasin D before calcium and contractility measurements.
Experiments were performed as described in Example 1 with some modification. Contractility is measured in custom-fabricated cell chambers (Ionoptix) mounted on an LSM Zeiss 880 inverted confocal microscope using a 40× oil 1.4 NA objective and transmitted light camera (IonOptix MyoCam-S). Myoyctes were maintained in NT solution (for freshly isolated myocytes) or culture medium (without cytochalasin D, for cultured myocytes) at room temperature and electrical field stimulation was provided at 0.5 Hz with a myopacer (IonOptix MYP100) through platinum electrodes lowered into the bath. Sarcomere length was measured optically by Fourier transform analysis (IonWizard, IonOptix). After 10-30 s of 0.5 Hz pacing to achieve steady state, five traces were recorded and analyzed. If not specified, contractility data was obtained at room temperature.
To test whether the contractile improvement over MT destabilization remains under more physiological conditions, both 0.5 Hz and 1 Hz contractions at 37 C were recorded and analyzed in a small subset of isolated human myocytes (1 NF and 1 failing heart, FIG. 29C).

WT myocytes = test: AFM viscoelasticity, WT mouse myocytes; details: WT + PTL
Procedure: Animal care and procedures were approved and performed in accordance with the standards set forth by the University of Pennsylvania Institutional Animal Care and Use Committee and the Guide for the Care and Use of Laboratory Animals published by the US National Institutes of Health. Desmin knockout mice and WT littermates were provided by Dr. Robert Bloch and have been previously characterized (36). Experiments were performed blinded to genotype.
Viral constructs were permitted to express for 24-72 hours with Moi=100-200. Parthenolide (Fisher Scientific NC9013142) treatment was carried out at room temperature for 2 hours at 10 μM. All experiments were performed within 48 hours of isolation, except those involving shTTL, which were allowed 72 hours to improve knockdown efficiency.
The elastic modulus of isolated cardiomyocytes was measured using AFM indentation. Optical microscopy and AFM were performed simultaneously using an MFP3D AFM (Asylum Research) combined with an inverted Nikon TE-2000U microscope equipped with a Nikon 100×, 1.49 NA objective. TTL expression was determined by dsRED fluorescence captured via 532 nm laser excitation (CrystaLaser) and a CCD camera (Cascade-512B, Photometrics) at 900 ms exposure time controlled through the NIS Elements software package. […] Modulus characterization of myocytes was performed using 4.26 μm radius (R below) SiO2 microparticle epoxied to SiN cantilevers with nominal spring constant 0.03 N/m (CP-PNPS-SiO-A, Nano And More, USA). Cantilever spring constants were manually calibrated in air by thermal vibrations using the MFP3D prior to each experiment using a clean glass substrate. Inverse optical lever sensitivity was determined in myocyte buffer solution prior to each round of measurements.
E is the elastic modulus, υ, is the cell Poisson ratio and δ is the indentation depth. Transverse compression of the cardiomyocyte is performed over a range of indentation speeds and the indentation speed is divided by the total indentation depth to obtain an effective indentation rate, f. […]

human myocytes [2] = test: Calcium measurements in human myocytes
Procedure: as §1
Calcium measurements were carried out as described in Example 1 with the following modifications. Myocytes were loaded with 1 μM Fluo-3-acetoxymethyl ester (Invitrogen) and 15% Pluronic F127 (a poloxamer made by BASF, Florham Park, N.J., USA) for 15 minutes. Cells were scanned using a 488-nm argon ion laser in confocal line-scan mode at 0.909 ms/line. Cells were electrically paced at 0.5 Hz at room temperature for 30 s to achieve steady state; five steady-state transients of each myocyte were averaged, pooled in groups and analyzed for calcium transient properties. The measured fluorescence (F) throughout the transient was normalized to the resting fluorescence prior to stimulation (F0) to normalize for heterogeneity in dye loading.

[3] = NF human myocytes, suggested off-target effect

C=C1C(=O)O[C@H]2[C@H]1CC/C(C)=C/CC[C@@]1(C)O[C@@H]21 [PTL, 4,5-epoxygermacra-1(10),11(13)-dien-12,6-olactone]
late phase of relaxation (human myocytes [1]; NF human myocytes, 10 μM PTL): slightly prolonging
restoration of lost function (contractile velocities vs NF benchmark) (human myocytes [1]; failing human myocytes): ~50%
shortening amplitude and velocity, speed of relaxation (human myocytes [1]; failing human myocytes, 10 μM, 2 hours): robustly improved
E1 (Pa) (WT myocytes): 533.11 Pa
E2 (Pa) (WT myocytes): 627.4 Pa
η (Pa*s) (WT myocytes): 32.9 Pa*s
[Ca2+]i amplitude (human myocytes [2]; [3]): reduced
[Ca2+]i transient decay phase (human myocytes [2]; [3]): prolonged
impaired [Ca2+]i cycling (human myocytes [2]; failing human myocytes): neither colch nor PTL treatment improved
F0 (baseline fluo3 intensity) compared to initial levels (human myocytes [2]; human myocytes): elevated
